Measured values taken from US20250295627A1 (Leibniz-Institut Fuer Neurobiologie, priority 2022, published 2025).
Like-named read-outs stand apart in the source and are kept apart here.

Tests used:
pCREB = assay: Aβ-induced CREB shutoff (nuclear pCREB) in hippocampal primary neurons; assay type: cell-based, rat
Method: (§1) Hippocampal and cortical cultures were prepared from Wistar rat embryos (E18) of mixed sex as described previously (Spilker et al., 2016). Briefly, dissected were digested for 15 min with trypsin at 37° C. Neurons were plated on plastic 12-well dishes (Greiner) on glass coverslips coated with poly-L-lysine (Sigma-Aldrich) at a density of 60 000 cells/well in DMEM medium (Gibco, Thermo Fisher Scientific) supplemented with 10% FCS, 1× penicillin/streptomycin, and 2 mM glutamine. After 1 h incubation (at the 37° C., 5% CO2, 95% humidity) cells were kept in BrainPhys medium supplemented with 1% SM1 (Stemmcell Technologies), 0.5 mM Glutamine (Gibco) at 37° C., 5% CO2 and 95% humidity. […]
(§2) For quantitation of nuclear staining intensity (pCREB or CREB) somatic regions were sequentially scanned using the 63× objective (Leica) in both: Leica TCS SP8-STED and Leica TCS SP5 systems. […] Unprocessed images were analysed using Fiji/ImageJ software (Schindelin et al., 2012). For visualization of the quantified channel a fire look-up table (LUT) was used. Synaptic density was quantified in secondary dendrites using Fiji/ImageJ (Schindelin et al., 2012). […] Intensity of the GluA1 channel was measured in ROIs defined by a Shank3 mask as a readout for surface AMPAR expression.

GluA1 AMPA-receptors = assay: Synaptic surface expression of GluA1 AMPA-receptors in hippocampal neurons; assay type: cell-based, rat; settings: 5 μM Nitarsone with 500 nM Aβ1-42, 48 h
Method: as §1, §2

TBA2.1 mice = assay: Neuronal loss (NeuN-positive cells) in CA1 after oral Nitarsone; assay type: in vivo, mouse; settings: versus vehicle-treated littermates
Method: Animals were anesthetized with ketamine/xylazine (Medistar) and transcardially perfused with 0.9% saline followed by 4% PFA. The brains were post-fixed in 4% PFA in PBS overnight, followed by immersion in 0.5 M sucrose for 24 h and then 1M sucrose for another 1 to 2 days or until the brains were sunken down. The brains were snap-frozen and cut into 35 μm thick coronal cryosections (Leica CM3050S, Leica-Microsystems). The sections were blocked in a buffer (0.3% TX-100, 10% NGS in PBS) for 30 min at RT, and incubated with primary antibodies diluted in the blocking solution, overnight at 4° C. Secondary antibodies were applied for 2 h at RT. Sections were counterstained with DAPI and mounted in Mowiol 4-88 (Merck Chemicals). For the detection of Aβ, the heat-based antigen retrieval method was used. […]
All quantifications were done within the distal CA1 region of the hippocampus. […] CREB and pCREB immunoreactivity of every single nucleus in a 100 μm stretch was measured in arbitrary units of pixel intensity. […] The neuronal loss was quantified based on NeuN staining (the number of neurons/CA1 length). For the quantification of microglia and astrocytes the number of cells based on overlaid DAPI and Iba-1 or GFAP signal was quantified within the rectangular ROI. Aβ plaques were counted in the region where the neuronal loss was quantified.

CREB = assay type: in vivo, mouse; settings: for CREB shutoff in dorsal hippocampal CA1: 50 mg/kg daily oral, 6 weeks
Method: Animals were anesthetized with ketamine/xylazine (Medistar) and transcardially perfused with 0.9% saline followed by 4% PFA. The brains were post-fixed in 4% PFA in PBS overnight, followed by immersion in 0.5 M sucrose for 24 h and then 1M sucrose for another 1 to 2 days or until the brains were sunken down. The brains were snap-frozen and cut into 35 μm thick coronal cryosections (Leica CM3050S, Leica-Microsystems). The sections were blocked in a buffer (0.3% TX-100, 10% NGS in PBS) for 30 min at RT, and incubated with primary antibodies diluted in the blocking solution, overnight at 4° C. Secondary antibodies were applied for 2 h at RT. Sections were counterstained with DAPI and mounted in Mowiol 4-88 (Merck Chemicals). For the detection of Aβ, the heat-based antigen retrieval method was used. For anti-Aβ staining, following permeabilization, brain sections were immersed into […] sodium citrate solution (Fluka, pH=9) for 30 min at 80° C. Imaging of nuclear pCREB/CREB immunoreactivities in cryosections was performed using a Leica TCS SP5 system (Leica-Microsystems). Images were acquired sequentially with a HCX ApoL20×/1.0 water objective, optical zoom 4. Sections were imaged with constant laser/detector settings along the z-axis with 400 nm step in a 512×512 pixel format.
. For TBA2.1 mice (both sexes), treatment started at the age of 4 weeks. The animals were group housed and force fed for 4 weeks. […] Treatment in 5×FAD male mice started at the age of 12 weeks. Here, animals were single housed right away and given a choice between voluntary and forced feeding. […] During the course of the 7th week of treatment, animals were either subjected to perfusion to obtain their brains for subsequent immunohistochemistry or they were culled to obtained native brains for electrophysiological recordings.
All quantifications were done within the distal CA1 region of the hippocampus. Fiji/ImageJ software (Schindelin et al., 2012) was used to calculate maximum intensity projection from five optical sections for each channel. CREB and pCREB immunoreactivity of every single nucleus in a 100 μm stretch was measured in arbitrary units of pixel intensity. ROls were defined based on NeuN and DAPI. The neuronal loss was quantified based on NeuN staining (the number of neurons/CA1 length). For the quantification of microglia and astrocytes the number of cells based on overlaid DAPI and Iba-1 or GFAP signal was quantified within the rectangular ROI. Aβ plaques were counted in the region where the neuronal loss was quantified.

For O=[N+]([O-])c1ccc([As](=O)(O)O)cc1 [Nitarsone, (4-nitrophenyl) arsonic acid], the “CREB shutoff induced by Aβ oligomers for 48 h” value (pCREB; 5 µM co-application, 500 nM Aβ oligomers, 48 h) was “rescued CREB shutoff”, the “acute Aβ-induced CREB shutoff” value (pCREB; 10 μM bath application, 30 min prior or 2 h after 500 nM Aβ for 2 h) was “prevented acute Aβ-induced CREB shutoff” and the “downscaling of synaptic surface expression of GluA1 AMPA-receptors” value (GluA1 AMPA-receptors) was “significantly attenuated”. The “early neuronal cell loss” value (TBA2.1 mice) was “reduced”, the “CREB shutoff in dorsal hippocampal CA1” value (CREB; 5×FAD mice) was “effectively prevented CREB shutoff” and the “CREB immunoreactivity in NeuN positive cells in CA1” value (CREB; 5×FAD mice, 18 weeks old) was “rescues the reduction of CREB immunoreactivity”. For the same compound, the “CREB shutoff in dorsal hippocampal CA1” value (CREB; TBA2.1 mice) was “effectively prevented CREB shutoff” and the “CREB immunoreactivity in NeuN positive cells in CA1” value (CREB; TBA2.1 mice, 11 weeks old) was “rescues the reduction of CREB immunoreactivity”.
